Experiments:
Test in all cases: In vitro percent disease control (radii of spore growth on agar)
Assay type in all cases: cell-based
Glomerella cingulata = conditions: Colletotrichum gloeosporioides, read-out: % controlled, Glo.
Protocol: (§1) The compounds of this invention were dissolved respectively in acetone in an amount equal to 10% of the final volume and then in purified water at the concentration of 100 ppm and 50 ppm.
(§2) Each of the solution was mixed with potato-sucrose-agar medium in a 6" petri dish and one of the fungi was spotted at the center of the dish. The dish was incubated in growth room for several days. The percent disease control was derived from the radii of spore growth. The screening tests in vitro condition are well-known to those skilled in the art.
(§3) The following fungi were used for the screening.
5) Glo.; Glomerella cingulata

Rhizopus sp. = conditions: Rhizopus, read-out: % controlled, Rhi. sp.
Protocol: as §1, §2, §3

Alternaria mali = conditions: Alternaria mali, read-out: % controlled, Al.
Protocol: as §1, §2, §3

[1] = system: Botryosphaeria dothidea Macrophoma sp.; conditions: Botryosphaeria dothidea, read-out: % controlled, Bo.do (Ma.)
Protocol: as §1, §2, §3
4) Bo.do(Ma); Botryosphaeria dothidea Macrophoma sp.

Botry tris cinerea = conditions: read-out: % controlled, Bo ci.
Protocol: as §1, §2, §3
10) Bo.ci.; Botry tris cinerea

Physalospora baccae = conditions: read-out: % controlled, Phy ba.
Protocol: as §1, §2, §3
3) Phy. ba.; Physalospora baccae

Rhizoctonia solani = conditions: Rhizoctonia solani, read-out: % controlled, Rhy. so.
Protocol: as §1, §2, §3
7) Rhi.so.; Rhizoctonia solani

Fusarium moniliforme = system: Fusarium moniliforme
Protocol: as §1, §2, §3
8) Fu.mo.; Fusarium moniliforme

Phytophthora capsisi = conditions: Phytophthora, read-out: % controlled, Phy ca.
Protocol: as §1, §2, §3
2) Phy. ca.; Phytophthora capsisi

Pyricalaria oryzae = conditions: for inhibition of growth at 50 ppm: read-out: % controlled, Py. or., 50 ppm; for inhibition of growth at 100 ppm: read-out: % controlled, Py. or., 100 ppm
Protocol: as §1, §2, §3
6) Py.or.; Pyricalaria oryzae

| SMILES | inhibition of growth at 50 ppm (Glomerella cingulata) [%] | inhibition of growth at 100 ppm (Glomerella cingulata) [%] | inhibition of growth at 50 ppm (Rhizopus sp.) [%] | inhibition of growth at 100 ppm (Rhizopus sp.) [%] | inhibition of growth at 50 ppm (Alternaria mali) [%] | inhibition of growth at 100 ppm (Alternaria mali) [%] | inhibition of growth at 50 ppm [1] [%] | inhibition of growth at 100 ppm [1] [%] | inhibition of growth at 50 ppm (Botry tris cinerea) [%] | inhibition of growth at 100 ppm (Botry tris cinerea) [%] | inhibition of growth at 50 ppm (Physalospora baccae) [%] | inhibition of growth at 100 ppm (Physalospora baccae) [%] | inhibition of growth at 50 ppm (Rhizoctonia solani) [%] | inhibition of growth at 100 ppm (Rhizoctonia solani) [%] | % controlled, Fu. mo. (Fusarium moniliforme; 50 ppm) [%] | % controlled, Fu. mo. (Fusarium moniliforme; 100 ppm) [%] | inhibition of growth at 50 ppm (Phytophthora capsisi) [%] | inhibition of growth at 100 ppm (Phytophthora capsisi) [%] | inhibition of growth at 50 ppm (Pyricalaria oryzae) [%] | inhibition of growth at 100 ppm (Pyricalaria oryzae) [%] |
| --- | --- | --- | --- | --- | --- | --- | --- | --- | --- | --- | --- | --- | --- | --- | --- | --- | --- | --- | --- | --- |
| C[Si](C)(C)C[Si](Cn1cncn1)(c1ccc(Cl)cc1)c1ccc(Cl)cc1 [2,2-bis(4-chlorophenyl)-4,4-dimethyl-2,4-disila-1-(1H-1,2,4-triazol-1-yl)pentane] | 83 | 89 | 51 | 54 | 75 | 79 | 70 | 72 | 67 | 85 | 90 | 100 | 56 | 66 | 46 | 65 | 28 | 34 | 90 | 95 |
| C[Si](C)(C[Si](Cn1cncn1)(c1ccc(Cl)cc1)c1ccc(Cl)cc1)c1ccc(F)cc1 [2,2-bis(4-chlorophenyl)-4-(4-fluorophenyl)-4-methyl-2,4-disila-1-(1H-1,2,4-triazol-1-yl)pentane] | 0 | 0 | 26 | 32 | 51 | 58 | 54 | 61 | 37 | 53 | 44 | 48 | 43 | 77 | 41 | 55 | 6 | 9 | 57 | 57 |
| CCOc1ccc([Si](Cn2cncn2)(C[Si](C)(C)c2ccc(F)cc2)c2ccc(OCC)cc2)cc1 [2,2-bis(4-ethoxyphenyl)-4-(4-fluorophenyl)-4-methyl-2,4-disila-1-(1H-1,2,4-triazol-1-yl)pentane] | 71 | 77 | 19 | 43 | 63 | 72 | 74 | 78 | 69 | 66 | 53 | 74 | 78 | 78 | 58 | 63 | 50 | 60 | 100 | 100 |
| C[Si](C)(C[Si](Cn1cncn1)(c1ccc(F)cc1)c1ccc(F)cc1)c1ccc(-c2ccccc2)cc1 [2,2-bis(4-fluorophenyl)-4-(4-phenylphenyl)-4-methyl-2,4-disila-1-(1H-1,2,4-triazol-1-yl)pentane] | 71 | 73 | 29 | 29 | 46 | 46 | 47 | 49 | 18 | 23 | 28 | 32 | 65 | 67 | 41 | 41 | 6 | 9 | 54 | 57 |
| C[Si](C)(C[Si](C)(Cn1cncn1)c1ccc(Cl)cc1)c1ccc(Cl)cc1 (stereo not shown) [2,4-bis(4-chlorophenyl)-2,4-dimethyl-2,4-disila-1-(1H-1,2,4-triazol-1-yl)pentane] | 70 | 76 | 31 | 40 | 54 | 69 | 80 | 82 | 33 | 41 | 34 | 37 | 28 | 42 | 48 | 57 | 16 | 22 | 27 | 27 |
| COc1ccc([Si](Cn2cncn2)(C[Si](C)(C)c2ccc(Cl)cc2)c2ccc(Cl)cc2)cc1 (stereo not shown) [2,4-bis(4-chlorophenyl)-2-(4-methoxyphenyl)-4-methyl-2,4-disila-1-(1H-1,2,4-triazol-1-yl)pentane] | 76 | 87 | 46 | 50 | 74 | 89 | 75 | 79 | 40 | 43 | 76 | 79 | 90 | 92 | 42 | 48 | 45 | 65 | 100 | 100 |
| C[Si](C)(C[Si](C)(Cn1cncn1)c1ccc(F)cc1)c1ccc(F)cc1 (stereo not shown) [2,4-bis(4-fluorophenyl)-2,4-dimethyl,2,4-disila-1-(1H-1,2,4-triazol-1-yl)pentane] | 72 | 73 | 24 | 26 | 38 | 44 | 40 | 43 | 0 | 10 | 22 | 22 | 57 | 60 | 35 | 38 | 3 | 6 | 50 | 54 |
| CCOc1ccc([Si](C)(C)C[Si](Cn2cncn2)(c2ccc(F)cc2)c2ccc(Cl)cc2)cc1 (stereo not shown) [2-(4-chlorophenyl)-4-(4-ethoxyphenyl)-2-(4-fluorophenyl)-4-methyl-2,4-disila-1-(1H-1,2,4-triazol-1-yl)pentane] | 87 | 87 | 50 | 50 | 75 | 79 | 74 | 79 | 90 | 90 | 69 | 69 | 96 | 96 | 46 | 46 | 23 | 25 | 100 | 100 |
| C[Si](C)(C)C[Si](C)(Cn1cncn1)c1ccc(F)cc1 (stereo not shown) [2-(4-fluorophenyl)-2,4,4-trimethyl-2,4-disila-1-(1H-1,2,4-triazol-1-yl)pentane] | – | – | 49 | 56 | 78 | 81 | 69 | 74 | 81 | 83 | 56 | 72 | 90 | 90 | 62 | 66 | 20 | 31 | 100 | 100 |

Reference: patent US5235061A, “Fungicidal (1H-1,2,4-triazolyl)disilaalkanes” (priority 1991, dated 1993)
